The compounds below were run against human P2X3 receptor (Homo sapiens (Human), UniProt P56373) (assay: Evaluation of human P2X3 receptor inhibitory activity (Fluo-3 calcium fluorescence, FDSS 3000, ATP stimulation)). Details: C6BU-1 cells stably expressing human P2X3 receptor.
human P2X3 receptor, sequence (P56373 whole entry): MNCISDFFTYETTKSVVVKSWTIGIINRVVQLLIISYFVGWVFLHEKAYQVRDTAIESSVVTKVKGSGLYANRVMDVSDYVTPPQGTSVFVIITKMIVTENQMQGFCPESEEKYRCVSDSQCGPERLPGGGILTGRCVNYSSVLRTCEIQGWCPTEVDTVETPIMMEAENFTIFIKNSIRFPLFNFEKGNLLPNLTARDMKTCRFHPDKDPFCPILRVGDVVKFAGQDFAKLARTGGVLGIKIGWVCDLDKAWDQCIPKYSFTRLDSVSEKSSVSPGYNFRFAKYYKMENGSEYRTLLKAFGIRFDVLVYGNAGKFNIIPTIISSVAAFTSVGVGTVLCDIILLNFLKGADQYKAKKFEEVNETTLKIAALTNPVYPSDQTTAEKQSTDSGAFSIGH
Assay type: cell-based
For `CNC(=NC#N)NCCCn1c(=O)[nH]/c(=N\c2ccc(OC(C)C)c(F)c2)n(Cc2ccc(Cl)cc2)c1=O` [Compound I-0615], the IC50 was 5 nM. For `COC(=O)[C@H](C)[C@H](C)n1c(=O)[nH]/c(=N\c2cccc(C(F)(F)F)c2)n(Cc2ccc(C)cc2)c1=O` [Compound I-1309], the IC50 was 21 nM. Compound `CCn1c(=O)[nH]/c(=N\c2ccc(Oc3cc(C(N)=O)on3)cc2)n(Cc2ccc(Cl)cc2)c1=O` [Compound I-2107] has an IC50 of 7 nM. In the case of `COC(=O)[C@H](C)[C@H](C)n1c(=O)[nH]/c(=N\c2ccc(OC3CCC3)cc2)n(Cc2ccc(C)cc2)c1=O` [Compound I-1379], the IC50 is reported as 10 nM. Work on `CCOC(=O)CCCn1c(=O)[nH]/c(=N\c2ccc3nc(C)sc3c2)n(Cc2ccc(C)cc2)c1=O` [Compound I-2123] yielded an IC50 of 4 nM. `C[C@H](C(=O)O)[C@@H](C)n1c(=O)[nH]/c(=N\c2ccc(N3CCCCC3)cc2)n(Cc2ccc(Cl)cc2)c1=O` [Compound I-1458] showed an IC50 of 25 nM. For `CO/N=C(\Cn1c(=O)[nH]/c(=N\c2ccc(OC(C)C)c(C)c2)n(Cc2ccc(Cl)cc2)c1=O)C(=O)O` [Compound I-0756], the IC50 was 131 nM. Compound `CCn1c(=O)[nH]/c(=N\c2ccc(Oc3cncc(C(=O)OC)c3)cc2)n(Cc2ccc(C)cc2)c1=O` [Compound I-2076] has an IC50 of 7 nM. Work on `C[C@@H](C(=O)O)[C@H](C)n1c(=O)[nH]/c(=N\c2ccc(N3CCCCC3)cc2)n(Cc2ccc(Cl)cc2)c1=O` [Compound I-1393] yielded an IC50 of 35 nM. With `COC(=O)[C@@H](C)[C@@H](C)n1c(=O)[nH]/c(=N\c2ccc(OC(C)C)c(C)c2)n(Cc2ccc(C)cc2)c1=O` [Compound I-1312] the IC50 was 45 nM. In the case of `Cc1ccc(Cn2c(=O)n([C@H](C)[C@H](C)C(=O)O)c(=O)[nH]/c2=N\c2ccc(OC3CCC3)cc2)cc1` [Compound I-1457], the IC50 is reported as 14 nM. `CC[C@@H](CC(=O)O)n1c(=O)[nH]/c(=N\c2ccc(OC(C)C)c(C)c2)n(Cc2ccc(Cl)cc2)c1=O` [Compound I-0798] showed an IC50 of 465 nM. `CCn1c(=O)[nH]/c(=N\c2ccc(Oc3cncc(C(=O)O)c3)cc2)n(Cc2ccc(F)cc2)c1=O` [Compound I-2112] showed an IC50 of 47 nM. Compound `COC(=O)C(C)(C)Cn1c(=O)[nH]/c(=N\c2ccc(OC(C)C)c(CO)c2)n(Cc2ccc(Cl)cc2)c1=O` [Compound I-1423] has an IC50 of 41 nM. `CCOC(=O)c1cc(Cn2c(=O)[nH]/c(=N\c3ccc(OC(C)C)c(C)c3)n(Cc3ccc(Cl)cc3)c2=O)on1` [Compound I-0784] showed an IC50 of 22 nM. Compound `CCCc1ccc(/N=c2\[nH]c(=O)n(C[C@H](C)C(=O)O)c(=O)n2Cc2ccc(C)cc2)cc1Cl` [Compound I-1267] has an IC50 of 9 nM. For `Cc1ccc(Cn2c(=O)n(CCCC(=O)O)c(=O)[nH]/c2=N\c2ccc3nc(C)sc3c2)cc1` [Compound I-2124], the IC50 was 27 nM. `CCOC(=O)C1(Cn2c(=O)[nH]/c(=N\c3ccc(OC(C)C)c(C)c3)n(Cc3ccc(Cl)cc3)c2=O)CC1` [Compound I-0694] was tested, and the IC50 was 13 nM. `Cn1c(=O)[nH]/c(=N\c2ccc(Oc3ccc(C(=O)O)cc3)cc2)n(Cc2ccc(Cl)cc2)c1=O` [Compound I-2063] was tested, and the IC50 was 120 nM. With `COCc1cc(/N=c2\[nH]c(=O)n(CC(C)(C)C(=O)OC)c(=O)n2Cc2ccc(Cl)cc2)ccc1OC(C)C` [Compound I-1422] the IC50 was 529 nM. Work on `CCn1c(=O)[nH]/c(=N\c2ccc(Oc3cc(C(=O)O)n[nH]3)cc2)n(Cc2ccc(Cl)cc2)c1=O` [Compound I-2194] yielded an IC50 of 52 nM. Compound `Cc1ccc(Cn2c(=O)n([C@H](C)[C@H](C)C(=O)O)c(=O)[nH]/c2=N\c2ccc3nc(C)sc3c2)cc1` [Compound I-1468] has an IC50 of 10 nM. Work on `Cc1nc2ccc(/N=c3\[nH]c(=O)n(CCNCCO)c(=O)n3Cc3ccc(Cl)cc3)cc2s1` [Compound I-2163] yielded an IC50 of 54 nM. In the case of `Cc1cc(/N=c2\[nH]c(=O)n([C@@H](C)[C@@H](C)C(=O)O)c(=O)n2Cc2ccc(Cl)cc2)ccc1OC1CCC1` [Compound I-1409], the IC50 is reported as 17 nM. Work on `COC(=O)[C@@H](C)Cn1c(=O)[nH]/c(=N\c2ccc(C(=O)C3CC3)cc2)n(Cc2ccc(C)cc2)c1=O` [Compound I-1302] yielded an IC50 of 169 nM. `C[C@@H](Oc1ccc(/N=c2\[nH]c(=O)n(CCC(=O)NCC(F)(F)F)c(=O)n2Cc2ccc(Cl)cc2)cc1)C(F)(F)F` [Compound I-1958] gave an IC50 of 16 nM. With `Cc1cc(Oc2ccc(/N=c3\[nH]c(=O)[nH]c(=O)n3Cc3ccc(Cl)cc3)cc2)ccn1` [Compound I-1955] the IC50 was 97 nM.

Same assay, conditions: C6BU-1 cells stably expressing human P2X3 receptor, Fluo-3 fluorescence, FDSS 3000
`Cc1ccc(Cn2c(=O)n(C[C@H](C)C(=O)O)c(=O)[nH]/c2=N\c2cccc(CC(C)C)c2)cc1` [Compound I-1137] was tested, and the IC50 was 678 nM. Work on `CC(C)Oc1ccc(/N=c2\[nH]c(=O)n(CCC(=O)O)c(=O)n2CC2(C)CCCCC2)cc1F` [Compound I-1809] yielded an IC50 of 339 nM. `CNC(=O)CCn1c(=O)[nH]/c(=N\c2ccc(Oc3ccc(O)nc3)cc2)n(Cc2ccc(Cl)cc2)c1=O` [Compound I-1600] was tested, and the IC50 was 11 nM. Work on `COc1noc2cc(/N=c3\[nH]c(=O)n([C@@H](C)[C@@H](C)C(=O)O)c(=O)n3Cc3ccc(Cl)cc3)ccc12` [Compound I-1746] yielded an IC50 of 129 nM. `C[C@@H](C(=O)O)[C@H](C)n1c(=O)[nH]/c(=N\c2ccc3oc4c(c3c2)CCCCC4)n(Cc2ccc(Cl)cc2)c1=O` [Compound I-1747] was tested, and the IC50 was 201 nM. With `CCC(CC)Oc1ccc(/N=c2\[nH]c(=O)n(CCC(=O)O)c(=O)n2Cc2ccc(C)cc2)cc1` [Compound I-1069] the IC50 was 111 nM. `CCOc1ccc(/N=c2\[nH]c(=O)n(C[C@@H](C)C(=O)OC)c(=O)n2Cc2ccc(C)cc2)cc1Cl` [Compound I-1106] showed an IC50 of 7 nM. In the case of `C[C@@H](C(=O)O)[C@H](C)n1c(=O)[nH]/c(=N\c2ccc3c(c2)OC(F)(F)O3)n(Cc2ccc(Cl)cc2)c1=O` [Compound I-1821], the IC50 is reported as 429 nM. For `COC(=O)CCn1c(=O)[nH]/c(=N\c2ccccc2NC(C)=O)n(Cc2ccc(C)cc2)c1=O` [Compound I-1892], the IC50 was 113 nM. `Cc1ccc(Cn2c(=O)n(C[C@H](C)C(=O)O)c(=O)[nH]/c2=N\c2cccc(C3CCCCC3)c2)cc1` [Compound I-1109] gave an IC50 of 430 nM. Compound `CCCCCOc1ccc(/N=c2\[nH]c(=O)n(C[C@H](C)C(=O)O)c(=O)n2Cc2ccc(C)cc2)cc1` [Compound I-1065] has an IC50 of 85 nM. `COC(=O)[C@@H](C)Cn1c(=O)[nH]/c(=N\c2ccc(OC3CCCC3)nc2)n(Cc2ccc(C)cc2)c1=O` [Compound I-1185] was tested, and the IC50 was 116 nM. With `CCOc1ccc(/N=c2\[nH]c(=O)n(CC3COC(C)(C)OC3)c(=O)n2Cc2ccc(Cl)cc2)cc1Cl` [Compound I-1886] the IC50 was 3 nM. Compound `CCOC(=O)CCCn1c(=O)[nH]/c(=N\c2ccc3oc(CC)c(C)c3c2)n(Cc2ccc(C)cc2)c1=O` [Compound I-1627] has an IC50 of 9 nM. `C[C@@H](C(=O)O)[C@H](C)n1c(=O)[nH]/c(=N\c2ccc(OCC3CC3)cc2)n(Cc2ccc(Cl)cc2)c1=O` [Compound I-0921] showed an IC50 of 30 nM. Compound `Cc1cc(/N=c2\[nH]c(=O)n(CC(CO)CO)c(=O)n2Cc2ccc(Cl)cc2)ccc1OC(C)C` [Compound I-1905] has an IC50 of 5 nM. In the case of `CCn1c(=O)[nH]/c(=N\c2ccc(Oc3ccc(C(N)=O)cc3)cc2)n(Cc2ccc(Cl)cc2)c1=O` [Compound I-1870], the IC50 is reported as 4 nM. In the case of `CCOC(=O)C1(Cn2c(=O)[nH]/c(=N\c3ccc(OCC(C)C)cc3)n(Cc3ccc(Cl)cc3)c2=O)CC1` [Compound I-1007], the IC50 is reported as 15 nM. `COC(=O)[C@@H](C)Cn1c(=O)[nH]/c(=N\c2ccc(N3CCCCC3)cc2)n(Cc2ccc(Cl)cc2)c1=O` [Compound I-0954] gave an IC50 of 23 nM.

Same assay, conditions: human P2X3 receptor, Test Example 1
`CC(CO)(CO)Cn1c(=O)[nH]/c(=N\c2ccc(Oc3nccs3)cc2)n(Cc2ccc(F)cc2)c1=O` [Compound I-2508] was tested, and the IC50 was 13 nM. `COC(=O)[C@H](C)n1c(=O)[nH]/c(=N\c2ccc(Oc3ccon3)cc2)n(Cc2ccc(Cl)cc2)c1=O` [Compound I-2459] showed an IC50 of 7 nM. `CCOC(=O)CNc1ccc(Oc2ccc(/N=c3\[nH]c(=O)n(CC)c(=O)n3Cc3ccc(Cl)cc3)cc2)cn1` [Compound I-2614] was tested, and the IC50 was 27 nM. In the case of `CCn1c(=O)[nH]/c(=N\c2ccc(Oc3ccsn3)cc2)n(Cc2ccc(Cl)cc2)c1=O` [Compound I-2286], the IC50 is reported as 5 nM. `Cc1ccc(Cn2c(=O)n([C@H](C)CC(=O)O)c(=O)[nH]/c2=N\c2ccc(OC(C)C)c(Cl)c2)cc1` [Compound I-0878] was tested, and the IC50 was 22 nM. With `COC(=O)[C@@H](C)Cn1c(=O)[nH]/c(=N\c2ccc(OCC(F)F)cc2)n(Cc2ccc(Cl)cc2)c1=O` [Compound I-0846] the IC50 was 35 nM. Work on `CNC(=O)Cn1c(=O)[nH]/c(=N\c2ccc(Oc3ccon3)cc2)n(Cc2ccc(Cl)cc2)c1=O` [Compound I-2590] yielded an IC50 of 17 nM. `O=c1[nH]/c(=N\c2ccc(Oc3cccc(F)n3)cc2)n(Cc2ccc(F)cc2)c(=O)n1CC(CO)CO` [Compound I-2583] showed an IC50 of 15 nM. In the case of `Cn1c(=O)[nH]/c(=N\c2ccc(Oc3cccc(C(N)=O)n3)cc2)n(C[C@H]2CC[C@H](C)CC2)c1=O` [Compound I-2463], the IC50 is reported as 3 nM. In the case of `C[C@@H](CO)n1c(=O)[nH]/c(=N\c2ccc(Oc3ccon3)cc2)n(Cc2ccc(Cl)cc2)c1=O` [Compound I-2489], the IC50 is reported as 50 nM. Work on `CCn1c(=O)[nH]/c(=N\c2ccc(Oc3cccc(C(=O)OC)n3)cc2)n(Cc2ccc(Cl)cn2)c1=O` [Compound I-2238] yielded an IC50 of 148 nM. Work on `Cc1nsc(Oc2ccc(/N=c3\[nH]c(=O)n(C[C@@H](O)CO)c(=O)n3Cc3ccc(Cl)cc3)cc2)n1` [Compound I-2577] yielded an IC50 of 8 nM. For `CCn1c(=O)[nH]/c(=N\c2ccc(Oc3cc(C(=O)O)sn3)cc2)n(C[C@H]2CC[C@H](C)CC2)c1=O` [Compound I-2349], the IC50 was 4 nM. In the case of `O=C(O)c1cncc(Oc2ccc(/N=c3\[nH]c(=O)n(C4CC4)c(=O)n3Cc3ccc(Cl)cc3)cc2)c1` [Compound I-2331], the IC50 is reported as 7 nM. `CCn1c(=O)[nH]/c(=N\c2ccc(Oc3nc(C)c(C(=O)O)s3)cc2)n(C[C@H]2CC[C@H](C)CC2)c1=O` [Compound I-2346] gave an IC50 of 4 nM. In the case of `CCn1c(=O)[nH]/c(=N\c2ccc(Oc3ccnc(NCCO)c3)cc2)n(Cc2ccc(Cl)cc2)c1=O` [Compound I-2588], the IC50 is reported as 11 nM. In the case of `CCn1c(=O)[nH]/c(=N\c2cccc(Oc3nccs3)c2)n(Cc2ccc(Cl)cc2)c1=O` [Compound I-2637], the IC50 is reported as 177 nM. In the case of `CCn1c(=O)[nH]/c(=N\c2ccc(Oc3cccc(C(=O)O)n3)c(F)c2)n(Cc2ccc(Cl)cc2)c1=O` [Compound I-2498], the IC50 is reported as 3 nM.

— patent publication US9718790B2, “Triazine derivative and pharmaceutical composition having an analgesic activity comprising the same” (SHIONOGI & CO., LTD., priority 2010, dated 2017)
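Further: stimulus was 50 nM ATP with fluorescence followed for 3 min, and the response per well was peak post-ATP fluorescence divided by the reading at measurement start.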
